One block for each molecule: values may come before it.
Legend:
[1] = target: CYP450 (isoform not stated) (Homo sapiens, UniProt P04798+P05177+P05181+P08684+P10632+P10635+P11509+P11712+P13584+P20813+P20815+P20853+P24462+P24903+P33260+P33261+P51589+P78329+P98187+Q02928+Q08477+Q16678+Q16696+Q5TCH4+Q6VVX0+Q7Z449+Q8TAV3+Q96SQ9+Q9HB55); assay: in vitro; details: Liver
[2] = target: T1, Steroid 17-alpha-hydroxylase/17,20 lyase (Homo sapiens, UniProt P05093); format: ADME
T1 sequence (P05093 whole entry): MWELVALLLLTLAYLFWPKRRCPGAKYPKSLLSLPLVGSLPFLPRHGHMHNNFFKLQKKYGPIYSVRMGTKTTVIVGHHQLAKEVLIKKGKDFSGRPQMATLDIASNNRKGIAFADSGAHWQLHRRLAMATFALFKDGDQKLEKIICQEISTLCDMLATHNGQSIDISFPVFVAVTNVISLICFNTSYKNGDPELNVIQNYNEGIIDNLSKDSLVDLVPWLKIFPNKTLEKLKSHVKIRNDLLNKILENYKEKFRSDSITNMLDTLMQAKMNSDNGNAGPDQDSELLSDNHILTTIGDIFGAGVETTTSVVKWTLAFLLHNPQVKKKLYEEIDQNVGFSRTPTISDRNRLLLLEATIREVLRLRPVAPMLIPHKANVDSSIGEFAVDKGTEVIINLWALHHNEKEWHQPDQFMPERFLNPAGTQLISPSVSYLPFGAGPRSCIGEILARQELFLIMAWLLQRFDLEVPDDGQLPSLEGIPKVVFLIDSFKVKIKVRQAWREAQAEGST
Description: Inhibition of human testicular CYP17

Cytochrome P450 1B1 = target: T2, Cytochrome P450 1B1 (Homo sapiens, UniProt Q16678)
T2 sequence (Q16678 whole entry): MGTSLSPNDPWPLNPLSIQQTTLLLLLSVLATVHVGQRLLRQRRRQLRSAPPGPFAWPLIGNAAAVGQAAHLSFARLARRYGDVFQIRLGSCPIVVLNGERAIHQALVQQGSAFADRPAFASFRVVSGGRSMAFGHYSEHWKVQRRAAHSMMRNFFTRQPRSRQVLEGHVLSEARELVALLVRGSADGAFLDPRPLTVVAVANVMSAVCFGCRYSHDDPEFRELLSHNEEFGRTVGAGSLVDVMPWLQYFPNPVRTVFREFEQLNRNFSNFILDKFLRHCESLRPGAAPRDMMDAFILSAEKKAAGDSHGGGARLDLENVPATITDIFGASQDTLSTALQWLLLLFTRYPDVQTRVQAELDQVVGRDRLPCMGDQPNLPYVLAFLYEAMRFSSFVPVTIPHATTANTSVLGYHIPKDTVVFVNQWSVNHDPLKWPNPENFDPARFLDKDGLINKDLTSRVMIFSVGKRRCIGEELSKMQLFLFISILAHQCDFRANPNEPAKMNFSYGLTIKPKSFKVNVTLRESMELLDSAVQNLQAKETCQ
Description: Inhibition of recombinant human CYP1B1 using 7-ethyl-0-resorufin as substrate incubated for 30 mins in presence of NADPH

Cytochrome P450 2C19 = Cytochrome P450 2C19 (Homo sapiens, UniProt P33261)
Cytochrome P450 2C19, sequence (P33261 whole entry): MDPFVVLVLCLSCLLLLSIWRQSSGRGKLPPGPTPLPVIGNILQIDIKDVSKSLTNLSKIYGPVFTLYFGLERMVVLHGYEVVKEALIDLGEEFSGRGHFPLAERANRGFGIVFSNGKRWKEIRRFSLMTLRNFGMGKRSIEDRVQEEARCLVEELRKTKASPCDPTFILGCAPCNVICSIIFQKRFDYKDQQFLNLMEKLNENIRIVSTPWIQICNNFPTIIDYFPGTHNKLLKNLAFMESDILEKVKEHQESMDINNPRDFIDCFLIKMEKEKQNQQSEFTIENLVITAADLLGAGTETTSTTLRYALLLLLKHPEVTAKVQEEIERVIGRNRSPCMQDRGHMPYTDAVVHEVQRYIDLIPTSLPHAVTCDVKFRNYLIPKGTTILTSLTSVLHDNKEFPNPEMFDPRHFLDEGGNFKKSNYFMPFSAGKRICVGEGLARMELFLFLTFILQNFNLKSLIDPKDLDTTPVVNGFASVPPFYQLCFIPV
Description: Inhibition of CYP2C19 in human liver microsomes incubated in presence NADPH

Aromatase = target: T3, Aromatase (Homo sapiens, UniProt P11511); format: cell-based, JEG-3
T3 sequence (P11511 whole entry): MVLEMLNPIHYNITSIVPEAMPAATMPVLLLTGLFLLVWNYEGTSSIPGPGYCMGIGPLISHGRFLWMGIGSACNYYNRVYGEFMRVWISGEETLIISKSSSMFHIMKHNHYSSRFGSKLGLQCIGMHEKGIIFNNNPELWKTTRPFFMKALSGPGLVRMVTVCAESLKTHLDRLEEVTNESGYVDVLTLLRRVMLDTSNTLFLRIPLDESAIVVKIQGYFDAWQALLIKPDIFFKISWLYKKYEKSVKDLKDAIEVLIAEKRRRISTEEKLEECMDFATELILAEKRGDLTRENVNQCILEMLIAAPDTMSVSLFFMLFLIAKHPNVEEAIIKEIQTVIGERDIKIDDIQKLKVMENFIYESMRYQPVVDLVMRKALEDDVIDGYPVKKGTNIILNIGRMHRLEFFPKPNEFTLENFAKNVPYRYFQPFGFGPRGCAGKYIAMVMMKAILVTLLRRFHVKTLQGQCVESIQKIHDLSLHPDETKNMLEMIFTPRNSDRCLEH

SMILES: Oc1ccc2c(c1)CCC1C(c3ccncc3)C21 (stereo unspecified)
IC50 [1]: 2810 µM

SMILES: COc1ccc(/C=C/c2c(CC=C(C)C)c(O)cc(O)c2CC=C(C)C)cc1
pIC50 (Cytochrome P450 1B1): 13.573

SMILES: CCn1cc(C(c2ccc(Cl)cc2)n2ccnn2)c2cc(Br)ccc21 (stereo unspecified)
IC50 (Cytochrome P450 2C19): 10 µM

SMILES: Oc1cccc2c1CCC1C(c3ccncc3)C21 (stereo unspecified)
IC50 [1]: 6.05 µM

Results, then the molecule that gave them:

IC50 [2]: 39.5 µM
SMILES: c1ccc2c(c1)CCC1C(c3ccncc3)C21 (stereo unspecified)

IC50 (Aromatase): 0.00701 µM
SMILES: N#Cc1ccccc1-c1cccc(Cn2cncn2)c1

— ChEMBL document CHEMBL5375941, “Combating breast cancer with non-steroidal aromatase inhibitors (NSAIs): Understanding the chemico-biological interactions through comparative SAR/QSAR study” (Eur J Med Chem, 2017)
